Measurements reported in the NIST ThermoML archive (doi:10.1016/j.tca.2011.11.025).

Experiment: excess molar enthalpy (molar enthalpy of mixing); xn = mol fraction of the nth substance listed
Details: 308.15 K, 101 kPa, Liquid, 2-drop calorimeter

Cc1cccc(C)c1 [1,3-dimethylbenzene] + C1COCCO1
Details | excess molar enthalpy [kcal/mol]
x2 = 0.0638 | 0.0149
x2 = 0.1239 | 0.0289
x2 = 0.1845 | 0.0429
x2 = 0.223 | 0.0496
x2 = 0.2742 | 0.0593
x2 = 0.3357 | 0.0675
x2 = 0.4212 | 0.0759
x2 = 0.4781 | 0.0796
x2 = 0.5516 | 0.0797
x2 = 0.6212 | 0.0748
x2 = 0.6836 | 0.0687
x2 = 0.7583 | 0.0576
x2 = 0.7797 | 0.0534
x2 = 0.8183 | 0.0467
x2 = 0.8884 | 0.0298
x2 = 0.9481 | 0.0144

Cc1ccc(C)cc1 [1,4-dimethylbenzene] + C1COCCO1
Details | excess molar enthalpy [kcal/mol]
x2 = 0.0757 | 0.0122
x2 = 0.1355 | 0.0244
x2 = 0.1984 | 0.0362
x2 = 0.2656 | 0.0481
x2 = 0.3025 | 0.0538
x2 = 0.3648 | 0.062
x2 = 0.4154 | 0.0674
x2 = 0.4759 | 0.0705
x2 = 0.5524 | 0.0717
x2 = 0.6251 | 0.0687
x2 = 0.6956 | 0.0625
x2 = 0.7415 | 0.0563
x2 = 0.7867 | 0.0487
x2 = 0.8521 | 0.0355
x2 = 0.8953 | 0.026
x2 = 0.9326 | 0.0168
